Laboratory results reported in US10294229B2, “Heteroaryl substituted aminopyridine compounds” (BRISTOL-MYERS SQUIBB COMPANY, priority 2015, dated 2019).

Molecular target: IRAK4 (Homo sapiens (Human), UniProt Q9NWZ3)
Experiment: IRAK4 Inhibition Assay
Format: biochemical
Conditions: ATP 500 μM; IRAK4 0.6 nM
In short: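 Mobility-shift kinase assay: 0.6 nM IRAK4, 500 μM ATP, 1.5 μM fluorescent peptide, 60 min, room temperature. Percent inhibition was normalised between enzyme-free and DMSO-only wells.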

Chain of IRAK4 (Q9NWZ3 whole entry, species assumed): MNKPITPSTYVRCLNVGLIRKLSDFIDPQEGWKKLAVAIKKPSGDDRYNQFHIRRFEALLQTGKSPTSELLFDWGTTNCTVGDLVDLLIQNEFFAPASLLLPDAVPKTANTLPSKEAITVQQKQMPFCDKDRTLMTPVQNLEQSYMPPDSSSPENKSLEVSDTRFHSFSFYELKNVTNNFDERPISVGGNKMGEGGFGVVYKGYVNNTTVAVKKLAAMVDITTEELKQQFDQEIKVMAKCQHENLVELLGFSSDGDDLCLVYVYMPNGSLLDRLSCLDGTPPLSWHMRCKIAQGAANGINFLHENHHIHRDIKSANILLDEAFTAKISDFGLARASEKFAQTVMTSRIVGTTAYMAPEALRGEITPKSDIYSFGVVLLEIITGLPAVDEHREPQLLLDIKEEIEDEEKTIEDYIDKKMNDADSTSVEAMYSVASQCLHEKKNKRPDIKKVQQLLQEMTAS

Structure (SMILES)	IC50
CC(O)Cc1cn(-c2cnc(-n3ncc4cc(C#N)cnc43)cc2NC2CC2)nn1 (single isomer, unassigned) [Example 275, 1-(4-(cyclopropylamino)-5-(4-(2-hydroxypropyl)-1H-1,2,3-triazol-1-yl)pyridin-2-yl)-1H-pyrazolo[3,4-b]pyridine-5-carbonitrile]	30 nM
CC(C)Nc1cc(-n2ncc3cc(C#N)cnc32)ncc1-c1cn(-c2cccc(O)c2)nn1 [Example 103, 1-(5-(1-(3-hydroxyphenyl)-1H-1,2,3-triazol-4-yl)-4-(isopropylamino)pyridin-2-yl)-1H-pyrazolo[3,4-b]pyridine-5-carbonitrile]	172 nM
CC(C)Nc1cc(-n2ncc3cc(C#N)cnc32)ncc1-c1cnn(C2CC2)c1 [Example 259, 1-(5-(1-cyclopropyl-1H-pyrazol-4-yl)-4-(isopropylamino)pyridin-2-yl)-1H-pyrazolo[3,4-b]pyridine-5-carbonitrile]	153 nM
CCCn1cc(-c2cnc(-n3ncc4cc(C#N)c(N)nc43)cc2NC2CCOCC2)nn1 [Example 51, 6-amino-1-(5-(1-propyl-1H-1,2,3-triazol-4-yl)-4-((tetrahydro-2H-pyran-4-yl)amino)pyridin-2-yl)-1H-pyrazolo[3,4-b]pyridine-5-carbonitrile]	3 nM
CCC(C)(O)c1cn(-c2cnc(-n3ncc4cc(C#N)cnc43)cc2NC(C)C)nn1 (stereo not shown) [Example 322, 1-(5-(4-(2-hydroxybutan-2-yl)-1H-1,2,3-triazol-1-yl)-4-(isopropylamino)pyridin-2-yl)-1H-pyrazolo[3,4-b]pyridine-5-carbonitrile]	39 nM
CC(C)Nc1cc(-n2ccc3cncnc32)ncc1-c1cn(Cc2cc(=O)[nH]c(=O)[nH]2)nn1 [Example 8, 6-((4-(4-(isopropylamino)-6-(7H-pyrrolo[2,3-d]pyrimidin-7-yl)pyridin-3-yl)-1H-1,2,3-triazol-1-yl)methyl)pyrimidine-2,4(1H,3H)-dione]	7 nM
CC(C)Nc1cc(-n2ccc3cncnc32)ncc1-c1cn(CCOCCOCCOCCO)nn1 [Example 9, 2-(2-(2-(2-(4-(4-(isopropylamino)-6-(7H-pyrrolo[2,3-d]pyrimidin-7-yl)pyridin-3-yl)-1H-1,2,3-triazol-1-yl)ethoxy)ethoxy)ethoxy) ethanol]	3 nM
CNCc1cn(-c2cnc(-n3ncc4cc(C#N)cnc43)cc2NC(C)C)nn1 [Example 314, 1-(4-(isopropylamino)-5-(4-((methylamino)methyl)-1H-1,2,3-triazol-1-yl)pyridin-2-yl)-1H-pyrazolo[3,4-b]pyridine-5-carbonitrile]	93 nM
CC(F)Cc1cn(-c2cnc(-n3ncc4cc(C#N)cnc43)cc2NC(C)C)nn1 (single isomer, unassigned) [Example 292, 1-(5-(4-(2-fluoropropyl)-1H-1,2,3-triazol-1-yl)-4-(isopropylamino)pyridin-2-yl)-1H-pyrazolo[3,4-b]pyridine-5-carbonitrile]	29 nM
CCCc1cn(-c2cnc(-n3ncc4cc(C#N)cnc43)cc2NC2COC2)nn1 [Example 276, 1-(4-(oxetan-3-ylamino)-5-(4-propyl-1H-1,2,3-triazol-1-yl)pyridin-2-yl)-1H-pyrazolo[3,4-b]pyridine-5-carbonitrile]	17 nM
CC(C)Nc1cc(-n2ncc3cc(C#N)cnc32)ncc1-n1cc(CN2CCOCC2)nn1 [Example 301, 1-(4-(isopropylamino)-5-(4-(morpholinomethyl)-1H-1,2,3-triazol-1-yl)pyridin-2-yl)-1H-pyrazolo[3,4-b]pyridine-5-carbonitrile]	22 nM
CC(C)Nc1cc(-n2ncc3cc(C#N)cnc32)ncc1-c1cn(-c2ccc(F)cc2)nn1 [Example 109, 1-(5-(1-(4-fluorophenyl)-1H-1,2,3-triazol-4-yl)-4-(isopropylamino)pyridin-2-yl)-1H-pyrazolo[3,4-b]pyridine-5-carbonitrile]	217 nM
CC(C)Nc1cc(-n2ncc3cc(C#N)cnc32)ncc1-c1cnn(CCO)c1 [Example 252, 1-(5-(1-(2-hydroxyethyl)-1H-pyrazol-4-yl)-4-(isopropylamino)pyridin-2-yl)-1H-pyrazolo[3,4-b]pyridine-5-carbonitrile]	119 nM
CCNc1cc(-n2cnc3cc(C#N)cnc32)ncc1-c1cn(C[C@H](C)O)nn1 [Example 72, (S)-3-(4-(ethylamino)-5-(1-(2-hydroxypropyl)-1H-1,2,3-triazol-4-yl)pyridin-2-yl)-3H-imidazo [4,5-b]pyridine-6-carbonitrile]	52 nM
CC(C)Nc1cc(-n2ncc3cc(C#N)cnc32)ncc1-c1cn(-c2ccc(F)c(C#N)c2)nn1 [Example 104, 1-(5-(1-(3-cyano-4-fluorophenyl)-1H-1,2,3-triazol-4-yl)-4-(isopropylamino)pyridin-2-yl)-1H-pyrazolo[3,4-b]pyridine-5-carbonitrile]	399 nM
CC(C)Nc1cc(-n2ncc3cc(C#N)cnc32)ncc1-c1cn(C[C@H](C)CO)cn1 [Example 228, (S)-1-(5-(1-(3-hydroxy-2-methylpropyl)-1H-imidazol-4-yl)-4-(isopropylamino)pyridin-2-yl)-1H-pyrazolo[3,4-b]pyridine-5-carbonitrile]	19 nM

Structure (SMILES)	IC50
Cc1nc2cc(Cn3cc(-c4cnc(-n5ncc6cc(C#N)cnc65)cc4NC(C)C)nn3)ccc2s1 [Example 106, 1-(4-(isopropylamino)-5-(1-((2-methylbenzo[d]thiazol-5-yl)methyl)-1H-1,2,3-triazol-4-yl)pyridin-2-yl)-1H-pyrazolo[3,4-b]pyridine-5-carbonitrile]	321 nM
CCCc1cn(-c2cnc(-n3ncc4cc(C#N)cnc43)cc2N[C@@H](C)CO)nn1 [Example 273, (S)-1-(4-((1-hydroxypropan-2-yl)amino)-5-(4-propyl-1H-1,2,3-triazol-1-yl)pyridin-2-yl)-1H-pyrazolo[3,4-b]pyridine-5-carbonitrile]	78 nM
CC(C)Nc1cc(-n2ncc3cc(C#N)cnc32)ncc1-c1cn(CC(=O)N2CCOCC2)nn1 [Example 101, 1-(4-(isopropylamino)-5-(1-(2-morpholino-2-oxoethyl)-1H-1,2,3-triazol-4-yl)pyridin-2-yl)-1H-pyrazolo[3,4-b]pyridine-5-carbonitrile]	5 nM
CCNc1cc(-n2ncc3cc(C#N)cnc32)ncc1-c1cn(C[C@H](C)O)nn1 [Example 71, (S)-1-(4-(ethylamino)-5-(1-(2-hydroxypropyl)-1H-1,2,3-triazol-4-yl)pyridin-2-yl)-1H-pyrazolo[3,4-b]pyridine-5-carbonitrile]	40 nM
CC(=O)N1CC(n2cnc(-c3cnc(-n4ncc5cc(C#N)cnc54)cc3NC(C)C)c2)C1 [Example 223, 1-(5-(1-(1-acetylazetidin-3-yl)-1H-imidazol-4-yl)-4-(isopropylamino)pyridin-2-yl)-1H-pyrazolo[3,4-b]pyridine-5-carbonitrile]	22 nM
CC(C)Nc1cc(-n2ncc3cc(C#N)cnc32)ncc1-c1cn(C2CCOCC2)nn1 [Example 19, 1-(4-(isopropylamino)-5-(1-(tetrahydro-2H-pyran-4-yl)-1H-1,2,3-triazol-4-yl)pyridin-2-yl)-1H-pyrazolo[3,4-b]pyridine-5-carbonitrile]	1 nM
CCCn1cc(-c2cnc(-n3cnc4cc(C#N)cnc43)cc2Nc2cnn(CC(F)F)c2)nn1 [Example 61, 3-(4-((1-(2,2-difluoroethyl)-1H-pyrazol-4-yl)amino)-5-(1-propyl-1H-1,2,3-triazol-4-yl)pyridin-2-yl)-3H-imidazo[4,5-b]pyridine-6-carbonitrile]	7 nM
CCCn1cc(-c2cnc(-n3ncc4cc(C#N)cnc43)cc2NC(C)C)cn1 [Example 261, 1-(4-(isopropylamino)-5-(1-propyl-1H-pyrazol-4-yl)pyridin-2-yl)-1H-pyrazolo[3,4-b]pyridine-5-carbonitrile]	29 nM
CC(C)Nc1cc(-n2ncc3cc(C#N)cnc32)ncc1-c1cn(C[C@@H](N)Cc2ccccc2)nn1 [Example 168, (S)-1-(5-(1-(2-amino-3-phenylpropyl)-1H-1,2,3-triazol-4-yl)-4-(isopropylamino)pyridin-2-yl)-1H-pyrazolo[3,4-b]pyridine-5-carbonitrile]	24 nM
CC(C)Nc1cc(-n2ncc3cc(C#N)cnc32)ncc1-c1cn(Cc2ccccc2)nn1 [Example 107, 1-(5-(1-benzyl-1H-1,2,3-triazol-4-yl)-4-(isopropylamino)pyridin-2-yl)-1H-pyrazolo[3,4-b]pyridine-5-carbonitrile]	15 nM
CC(C)Nc1cc(-n2cnc3cc(C#N)cnc32)ncc1-c1cn(C[C@@H](C)O)nn1 [Example 68, (R)-3-(5-(1-(2-hydroxypropyl)-1H-1,2,3-triazol-4-yl)-4-(isopropylamino)pyridin-2-yl)-3H-imidazo[4,5-b]pyridine-6-carbonitrile]	14 nM
CC(C)Nc1cc(-n2ncc3cc(C#N)cnc32)ncc1-c1cn([C@@H]2O[C@H](CO)[C@H](O)[C@H](O)[C@H]2O)nn1 [Example 105, 1-(4-(isopropylamino)-5-(1-((2R,3R,4S,5R,6R)-3,4,5-trihydroxy-6-(hydroxymethyl)tetrahydro-2H-pyran-2-yl)-1H-1,2,3-triazol-4-yl)pyridin-2-yl)-1H-pyrazolo[3,4-b]pyridine-5-carbonitrile]	55 nM
CC(C)Nc1cc(-n2ncc3cc(C#N)cnc32)ncc1-n1cc(C(C)C)cn1 [Example 244, 1-(5-(4-isopropyl-1H-pyrazol-1-yl)-4-(isopropylamino)pyridin-2-yl)-1H-pyrazolo[3,4-b]pyridine-5-carbonitrile]	61 nM
CCCn1cc(-c2cnc(-n3ncc4cc(Cl)cnc43)cc2NC2CC2)nn1 [Example 36, 2-(5-chloro-1H-pyrazolo[3,4-b]pyridin-1-yl)-N-cyclopropyl-5-(1-propyl-1H-1,2,3-triazol-4-yl)pyridin-4-amine]	11 nM
CC(C)Nc1cc(-n2ncc3cc(C#N)cnc32)ncc1-n1cc(CCO)nn1 [Example 302, 1-(5-(4-(2-hydroxyethyl)-1H-1,2,3-triazol-1-yl)-4-(isopropylamino)pyridin-2-yl)-1H-pyrazolo[3,4-b]pyridine-5-carbonitrile]	29 nM
